Laboratory results published in PubChem BioAssay AID248 (DTP/NCI, 2004).
Several values for one entry are separate records, joined by “and”; a condition that tells them apart may be missing. Identical values can stand only once. Toxic doses and inconclusive results are not listed. Cut-off read from the data, not from the text of the source: active = T/C of 150% or more; inactive = T/C below 125%.

Tested on: L1210 leukemia ip in BDF1 mice, survival T/C
Test: NCI In Vivo Anticancer Drug Screen. Data for tumor model L1210 Leukemia (intraperitoneal) in B6D2F1 (BDF1) mice
Details: endpoint: mean survival time, higher = longer survival
Outline: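 Transplanted-tumor mice were given test agent; controls received vehicle only. Survival readings from the two groups were divided (treated over control).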

[1] = dose: 12.5 mg/kg/injection, schedule: Q01DX009 (ip), vehicle: saline
[2] = dose: 25.0 mg/kg/injection, schedule: Q01DX005 (ip), vehicle: saline
[3] = dose: 25.0 mg/kg/injection, schedule: Q01DX009 (ip), vehicle: saline
[4] = dose: 100.0 mg/kg/injection, schedule: Q04DX002 (ip), vehicle: saline
[5] = dose: 100.0 mg/kg/injection, schedule: Q01DX001 (ip), vehicle: carboxymethylcellulose (CMC)
[6] = dose: 100.0 mg/kg/injection, schedule: Q01DX009 (ip), vehicle: Klucel (hydroxypropylcellulose) (HPC)
[7] = dose: 100.0 mg/kg/injection, schedule: Q04DX003 (ip), vehicle: Klucel (hydroxypropylcellulose) (HPC)
[8] = dose: 200.0 mg/kg/injection, schedule: Q01DX009 (ip), vehicle: Klucel (hydroxypropylcellulose) (HPC)
[9] = dose: 200.0 mg/kg/injection, schedule: Q04DX003 (ip), vehicle: Klucel (hydroxypropylcellulose) (HPC)
[10] = dose: 400.0 mg/kg/injection, schedule: Q01DX009 (ip), vehicle: Klucel (hydroxypropylcellulose) (HPC)
[11] = dose: 400.0 mg/kg/injection, schedule: Q04DX003 (ip), vehicle: Klucel (hydroxypropylcellulose) (HPC)
[12] = dose: 50.0 mg/kg/injection, schedule: Q01DX009 (ip), vehicle: saline
[13] = dose: 100.0 mg/kg/injection, schedule: Q01DX009 (ip), vehicle: saline
[14] = dose: 100.0 mg/kg/injection, schedule: Q04DX003 (ip), vehicle: saline with Tween-80
[15] = dose: 200.0 mg/kg/injection, schedule: Q04DX003 (ip), vehicle: saline with Tween-80
[16] = dose: 400.0 mg/kg/injection, schedule: Q04DX003 (ip), vehicle: saline with Tween-80
[17] = dose: 50.0 mg/kg/injection, schedule: Q01DX009 (ip), vehicle: Klucel (hydroxypropylcellulose) (HPC)
[18] = dose: 100.0 mg/kg/injection, schedule: Q01DX001 (ip), vehicle: saline with Tween-80
[19] = dose: 200.0 mg/kg/injection, schedule: Q01DX001 (ip), vehicle: saline with Tween-80

Measured: T/C

CC#CC(=O)O
inactive: dose: 6.25 mg/kg/injection, schedule: Q01DX009 (ip), vehicle: saline 106 % of control | [1] 106 % of control | [2] 104 % of control | [3] 98 % of control and 100 % of control | dose: 25.0 mg/kg/injection, schedule: Q04DX002 (ip), vehicle: saline 95 % of control | dose: 50.0 mg/kg/injection, schedule: Q01DX005 (ip), vehicle: saline 97 % of control | dose: 50.0 mg/kg/injection, schedule: Q04DX002 (ip), vehicle: saline 102 % of control | dose: 100.0 mg/kg/injection, schedule: Q01DX005 (ip), vehicle: saline 93 % of control | [4] 104 % of control

c1ccc(-c2ccns2)cc1
inactive: dose: 50.0 mg/kg/injection, schedule: Q01DX001 (ip), vehicle: carboxymethylcellulose (CMC) 89 % of control | [5] 89 % of control | dose: 200.0 mg/kg/injection, schedule: Q01DX001 (ip), vehicle: carboxymethylcellulose (CMC) 93 % of control

CN(C)c1ccc(/C=C2/CCCCC2=O)cc1
inactive: [6] 98 % of control | [7] 93 % of control | [8] 109 % of control | [9] 103 % of control | [10] 96 % of control | [11] 103 % of control

Cc1ccc(C(=O)/C=C\c2ccc(Cl)cc2Cl)cc1
inactive: [7] 92 % of control | [9] 100 % of control | [11] 92 % of control

CCC(=O)NCC1(c2ccccc2)CCN(CCCC(=O)c2ccc(F)cc2)CC1
inactive: [3] 121 % of control | [12] 113 % of control | [13] 121 % of control

COc1ccc(Nc2ccc([N+](=O)[O-])cc2[N+](=O)[O-])cc1
inactive: [14] 96 % of control | [15] 94 % of control | [16] 91 % of control

CCNc1ncnc2c1c(C(N)=S)cn2C1OC(CO)C(O)C1O (stereo unspecified)
inactive: dose: 12.5 mg/kg/injection, schedule: Q01DX005 (ip), vehicle: saline 111 % of control and 113 % of control | dose: 12.5 mg/kg/injection, schedule: Q01DX009 (ip), vehicle: Klucel (hydroxypropylcellulose) (HPC) 109 % of control | [1] 111 % of control | [2] 105 % of control and 124 % of control | dose: 25.0 mg/kg/injection, schedule: Q01DX009 (ip), vehicle: Klucel (hydroxypropylcellulose) (HPC) 91 % of control | [3] 112 % of control

Cc1cc(O)c(C(C)(C)C)cc1N=O
inactive: dose: 50.0 mg/kg/injection, schedule: Q04DX003 (ip), vehicle: saline + alcohol 104 % of control | dose: 100.0 mg/kg/injection, schedule: Q04DX003 (ip), vehicle: saline + alcohol 101 % of control | dose: 200.0 mg/kg/injection, schedule: Q04DX003 (ip), vehicle: saline + alcohol 95 % of control

O=C(C1=NNC(c2ccccc2)C1C(=O)c1ccccc1)c1ccccc1 (stereo unspecified)
inactive: dose: 100.0 mg/kg/injection, schedule: Q01DX001 (ip), vehicle: steriod suspending solution 93 % of control | dose: 200.0 mg/kg/injection, schedule: Q01DX001 (ip), vehicle: steriod suspending solution 110 % of control | dose: 400.0 mg/kg/injection, schedule: Q01DX001 (ip), vehicle: steriod suspending solution 101 % of control

S=P1(c2ccccc2)Nc2cc3ccccc3cc2N1
inactive: [14] 97 % of control | [15] 100 % of control | [16] 96 % of control

O=C(Nc1cc(Cl)cc2c1-c1c(Cl)cc(Cl)cc1C2)C(Cl)Cl
inactive: dose: 50.0 mg/kg/injection, schedule: Q04DX003 (ip), vehicle: Klucel (hydroxypropylcellulose) (HPC) 100 % of control | [6] 97 % of control | [7] 92 % of control | [9] 94 % of control | [11] 100 % of control

O=C(N/N=C/c1ccc(O)cc1)c1ccccc1NC(=O)C1CC1
inactive: [6] 104 % of control | [8] 89 % of control | [10] 93 % of control

CCOC(=O)C(C(=O)OCC)C1c2ccccc2C(=NO)c2ccccc21 (stereo unspecified)
inactive: [17] 96 % of control | [6] 98 % of control | [7] 88 % of control | [8] 94 % of control | [9] 92 % of control

NNc1ccc2ccccc2n1
inactive: dose: 5.0 mg/kg/injection, schedule: Q01DX009 (ip), vehicle: saline 95 % of control | dose: 5.0 mg/kg/injection, schedule: Q04DX003 (ip), vehicle: saline with Tween-80 113 % of control | dose: 10.0 mg/kg/injection, schedule: Q01DX009 (ip), vehicle: saline 97 % of control | dose: 10.0 mg/kg/injection, schedule: Q04DX003 (ip), vehicle: saline with Tween-80 101 % of control | dose: 20.0 mg/kg/injection, schedule: Q01DX009 (ip), vehicle: saline 97 % of control | dose: 20.0 mg/kg/injection, schedule: Q04DX003 (ip), vehicle: saline with Tween-80 101 % of control

CCCCC/C=N\NC(N)=S
inactive: [5] 96 % of control

O=C1CCN(S(=O)(=O)c2ccccc2)c2ccccc21
inactive: dose: 100.0 mg/kg/injection, schedule: Q01DX001 (ip), vehicle: saline 94 % of control | dose: 200.0 mg/kg/injection, schedule: Q01DX001 (ip), vehicle: saline 94 % of control | dose: 400.0 mg/kg/injection, schedule: Q01DX001 (ip), vehicle: saline 92 % of control

C=C(Cl)CSC(C)(C)C
inactive: [13] 118 % of control | [4] 100 % of control | dose: 200.0 mg/kg/injection, schedule: Q01DX009 (ip), vehicle: saline 100 % of control | dose: 200.0 mg/kg/injection, schedule: Q04DX002 (ip), vehicle: saline 97 % of control | dose: 400.0 mg/kg/injection, schedule: Q01DX009 (ip), vehicle: saline 93 % of control | dose: 400.0 mg/kg/injection, schedule: Q04DX002 (ip), vehicle: saline 93 % of control

c1ccc(Nc2ncc3cnccn23)cc1
inactive: [3] 96 % of control | [12] 90 % of control | [13] 97 % of control

CCOC(=O)Nc1cc2c(c(NC(=O)OCC)n1)N=C(CN(C)c1ccccc1)CN2
inactive: dose: 12.5 mg/kg/injection, schedule: Q01DX009 (ip), vehicle: saline with Tween-80 100 % of control | dose: 25.0 mg/kg/injection, schedule: Q01DX009 (ip), vehicle: saline with Tween-80 105 % of control | dose: 50.0 mg/kg/injection, schedule: Q01DX009 (ip), vehicle: saline with Tween-80 114 % of control | dose: 88.0 mg/kg/injection, schedule: Q01DX001 (ip), vehicle: saline with Tween-80 105 % of control | [18] 106 % of control | dose: 133.0 mg/kg/injection, schedule: Q01DX001 (ip), vehicle: saline with Tween-80 97 % of control | [19] 113 % of control

COc1ccc([N+](=O)[O-])cc1NC(=O)c1ccc(Cl)cc1
inactive: [17] 96 % of control | [6] 94 % of control | [8] 95 % of control | [10] 94 % of control

Nc1cccc2c1C(=O)c1cccc(N)c1C2=O
inactive: [7] 101 % of control | [9] 96 % of control | [11] 96 % of control

CCCCC[CH2][Sn](=[O])[CH2]CCCCC
inactive: [18] 105 % of control | [19] 100 % of control | dose: 400.0 mg/kg/injection, schedule: Q01DX001 (ip), vehicle: saline with Tween-80 103 % of control
